pIC50: −log10 of the molar value. The source made the active and inactive calls. No rule for the calls is given here.
Molecular target: Ubiquitin carboxyl-terminal hydrolase 8 (Homo sapiens) (UniProt P40818)
Assay: Ubiquitin-specific protease 8 inhibitors, concentration-effect, biochemical, validation of initial actives (AID 1645862);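 also: potency reflects inhibition of USP8 cleavage of a ubiquitin rhodamine substrate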
Conditions: recombinant USP8 deubiquitinase activity assay

Chain of Ubiquitin carboxyl-terminal hydrolase 8 (Homo sapiens) (P40818 whole entry, looked up): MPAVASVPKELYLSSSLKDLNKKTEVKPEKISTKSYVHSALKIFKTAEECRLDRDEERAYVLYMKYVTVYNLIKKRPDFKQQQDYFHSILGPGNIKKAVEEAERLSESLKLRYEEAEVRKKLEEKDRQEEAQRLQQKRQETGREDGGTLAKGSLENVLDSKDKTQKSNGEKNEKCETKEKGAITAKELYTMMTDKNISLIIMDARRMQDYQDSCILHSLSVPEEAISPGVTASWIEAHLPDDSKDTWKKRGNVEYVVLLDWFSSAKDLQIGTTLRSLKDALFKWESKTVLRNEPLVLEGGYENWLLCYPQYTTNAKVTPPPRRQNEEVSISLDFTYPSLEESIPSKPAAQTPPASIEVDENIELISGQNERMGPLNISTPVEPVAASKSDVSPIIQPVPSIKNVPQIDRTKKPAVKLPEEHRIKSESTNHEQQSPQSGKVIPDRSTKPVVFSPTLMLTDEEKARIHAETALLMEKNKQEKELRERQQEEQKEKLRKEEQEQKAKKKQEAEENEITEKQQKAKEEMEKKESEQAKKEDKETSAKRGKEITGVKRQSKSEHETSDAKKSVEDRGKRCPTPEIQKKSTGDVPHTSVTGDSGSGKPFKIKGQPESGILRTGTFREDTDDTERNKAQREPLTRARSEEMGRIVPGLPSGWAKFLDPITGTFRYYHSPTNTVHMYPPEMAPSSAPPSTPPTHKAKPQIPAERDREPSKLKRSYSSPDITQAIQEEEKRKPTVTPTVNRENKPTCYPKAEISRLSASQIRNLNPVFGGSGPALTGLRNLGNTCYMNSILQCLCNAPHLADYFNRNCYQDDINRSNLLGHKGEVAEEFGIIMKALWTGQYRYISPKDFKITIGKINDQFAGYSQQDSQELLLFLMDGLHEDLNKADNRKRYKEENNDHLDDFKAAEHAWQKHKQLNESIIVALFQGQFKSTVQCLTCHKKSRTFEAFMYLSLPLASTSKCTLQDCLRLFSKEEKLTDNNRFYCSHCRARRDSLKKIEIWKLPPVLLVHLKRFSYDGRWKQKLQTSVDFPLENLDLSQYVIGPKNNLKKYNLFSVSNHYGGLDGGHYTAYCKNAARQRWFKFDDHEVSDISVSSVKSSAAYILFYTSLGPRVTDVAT

IC50	pIC50	Compound
> 40 µM (inactive)	–	O=C(NCCN1CCOCC1)c1cn2cc(Cl)ccc2n1
–	4.51	CCCCCCCCCCCCCCCc1cc(O)cc(O)c1C(=O)O
–	5.84	Cc1cc(O)c2c3c(c(O)cc2c1)C(=O)c1c(O)cccc1C3=O
> 40 µM (inactive)	–	CCN(Cc1ccccc1)C(=O)Cn1ccc2ccn(C)c2c1=O
> 40 µM (inactive)	–	COc1ccc(C)cc1NC(=O)CN1C(=O)C2CCCC2=Nc2ccccc21 (stereo not drawn)
> 40 µM (inactive)	–	Cc1cccc(NC(=O)CSc2nnc(NC(=O)c3ccc4ccccc4c3)s2)c1
> 40 µM (inactive)	–	CCOc1ccc(NC(=O)Cn2c(=O)n(CCCCCC(=O)NCc3ccc(F)cc3)c(=O)c3sccc32)cc1
> 40 µM (inactive)	–	CCCCCCC1CCC(O)CC(O)CC(O)CC(O)CC(O)CC(O)/C(C)=C/C=C\C=C/C=C/C=C/[C@H](O)[C@@H](C)OC1=O (stereo partly drawn)
> 40 µM (inactive)	–	Cc1cc(N2CCN(c3ncccn3)CC2)nc2ccc(NC(=O)Cn3nc([N+](=O)[O-])c(Br)c3C)cc12
> 40 µM (inactive)	–	CC(C)(C)c1ccc(C2CC(=O)C3=C(C2)Nc2ccccc2N(C(=O)CCC(=O)O)C3c2cccc([N+](=O)[O-])c2)cc1 (stereo not drawn)
> 40 µM (inactive)	–	COc1ccc(/C=C/C(=O)Nc2ccc3nc(N4CCN(c5ncccn5)CC4)cc(C)c3c2)cc1
–	4.42	O=C(COc1ccccc1-c1nnc(-c2ccccc2)o1)NCc1ccco1
–	4.81	O=C(O)C1C(C(=O)Nc2ccccc2)C2(c3ccccc3)C(=O)C1(c1ccccc1)C(c1ccccc1)=C2c1ccccc1 (stereo not drawn)
> 40 µM (inactive)	–	COc1ccc(/C=C/C(=O)Nc2cccc(S(=O)(=O)Nc3ccccc3Cl)c2)c(OC)c1
> 40 µM (inactive)	–	N=C1/C(=C/c2cn(Cc3ccc(F)cc3)c3ccccc23)C(=O)N=C2SC(Cc3ccccc3)=NN12
> 40 µM (inactive)	–	Cc1ccc(Nc2nc(Nc3cccc(F)c3)nc3nccnc23)c(C)c1
> 40 µM (inactive)	–	Cc1cccc2nc(CSc3nc4ccc([N+](=O)[O-])cc4[nH]3)cn12
> 40 µM (inactive)	–	Cn1cc(C(=O)Nc2ccccc2)c2[nH]c(=O)n(Cc3ccccc3)c(=O)c21
> 40 µM (inactive)	–	O=C(Nc1cccnc1)C1c2ccccc2C(=O)N(c2ccccc2)C12CCCCC2 (stereo not drawn)
> 40 µM (inactive)	–	O=C(CCCCn1c(=O)c2ccccc2n(CC(=O)Nc2ccc3c(c2)OCCO3)c1=O)NCc1ccco1
> 40 µM (inactive)	–	Cc1ccc(NC(=O)Cn2c(=O)n(CCC(=O)NCCc3ccccc3)c(=O)c3ccccc32)cc1C
–	4.59	O=C(/C=C/c1ccc(F)cc1)N1CCc2ccccc2C1

IC50	pIC50	Compound
> 40 µM (inactive)	–	Cc1ccc(NC(=O)COc2ccccc2/C=C2/NC(=O)N(Cc3ccc(F)cc3)C2=O)cc1
> 40 µM (inactive)	–	COc1ccc(-n2c(=O)c3ccc(C(=O)NCCc4ccccc4)cc3n(CC(=O)NCc3ccco3)c2=O)cc1
> 40 µM (inactive)	–	O=c1[nH]cccc1NS(=O)(=O)c1ccc(F)cc1
> 40 µM (inactive)	–	O=C(CCSc1nnnn1-c1ccccc1)Nc1cc(C(F)(F)F)ccc1Cl
> 40 µM (inactive)	–	O=C(Nc1cccc(-c2nc3cnccc3o2)c1)c1ccc(Br)o1
> 40 µM (inactive)	–	COC(=O)c1ccc2c(=O)n(CCCCCC(=O)NCc3cccc(Cl)c3)c(=O)[nH]c2c1
> 40 µM (inactive)	–	NS(=O)(=O)c1ccc(CNS(=O)(=O)/C=C/c2ccccc2)cc1
> 40 µM (inactive)	–	O=C(Cn1c(=O)n(CCC(=O)NC2CCCC2)c(=O)c2ccccc21)NCc1ccccc1Cl
> 40 µM (inactive)	–	COc1ccc(-c2cc3c(=O)n(CC(=O)Nc4ccccc4C)ccn3n2)cc1
> 40 µM (inactive)	–	O=C(Nc1ccc(F)cc1F)NC1CCN(c2ccccc2)C1=O (stereo not drawn)
–	5.44	COc1cc(O)c2c(O)c3c(cc2c1)C[C@@]1(O)CC(=O)C(C(N)=O)=C(O)[C@@]1(O)C3=O
> 40 µM (inactive)	–	COc1ccccc1N1CCN(C(=O)c2ccc3c(=O)n(CCc4ccccc4)c(=O)[nH]c3c2)CC1
> 40 µM (inactive)	–	O=C(Nc1ccc(-n2cccc2)cc1)c1cccc([N+](=O)[O-])c1
> 40 µM (inactive)	–	Cc1cn2nnc(C(=O)Nc3ccc(OC(F)(F)F)cc3)c2c(=O)[nH]1
> 40 µM (inactive)	–	CSc1nc(N)c2c(n1)N[C@H]1OC[C@H](O)[C@H](O)[C@H]1N2
> 40 µM (inactive)	–	CCc1ccc(NC(=O)C(C)OC(=O)/C=C/c2ccc(S(=O)(=O)Nc3cccc(S(N)(=O)=O)c3)cc2)cc1 (stereo not drawn)
> 40 µM (inactive)	–	COc1cccc(CNc2ccc(-c3nc(-c4ccccc4)no3)nn2)c1
> 40 µM (inactive)	–	Cc1ccc(-n2nc(C)c3c2NC(=O)CC3C(=O)c2cc3ccccc3o2)cc1C (stereo not drawn)
> 40 µM (inactive)	–	O=C(c1ccncc1)N1CCN(CC2CC=CCC2)CC1 (stereo not drawn)
> 40 µM (inactive)	–	Cc1sc(NC(=O)Cn2nnc3ccccc32)nc1-c1ccc2c(c1)CCN2C(=O)c1ccccc1F
> 40 µM (inactive)	–	CC(C)CCCCCCCCCCC(=O)N(C)[C@H](CO)C(=O)N[C@H](C)C(=O)NCC(=O)N(C)C1C(=O)N[C@@H](C)C(=O)NC(C(=O)O)Cc2ccc(O)c(c2)-c2cc1ccc2O (stereo partly drawn)
> 40 µM (inactive)	–	COc1ccc2c(c1)c(CC(=O)Nc1ccc(N3CCOCC3)cc1)c(C)n2C(=O)c1ccc(Cl)cc1

IC50	pIC50	Compound
> 40 µM (inactive)	–	COc1ccc(S(=O)(=O)N2CCc3ccccc32)cc1C(=O)Nc1ccc2c(c1)NC(=O)C(C)O2 (stereo not drawn)
> 40 µM (inactive)	–	Cn1cc(NC(=O)Nc2cccc3ccccc23)c2ccccc21
> 40 µM (inactive)	–	COc1ccccc1CNC(=O)Cn1cnc2c(-c3ccccc3)csc2c1=O
> 40 µM (inactive)	–	COc1ccc(CCC(=O)Nc2nnc(C3CC(=O)N(c4ccccc4)C3)s2)cc1 (stereo not drawn)
> 40 µM (inactive)	–	CCCCOc1ccc(C(=O)n2ccn(S(=O)(=O)c3ccc(C)cc3)c2=O)cc1
> 40 µM (inactive)	–	O=C(Cn1c(=O)c2ccccc2c2ccccc21)Nc1ccc2c(c1)OCO2
> 40 µM (inactive)	–	COc1ccc(-c2cc(-c3ccc(F)cc3)[nH]c(=O)c2C#N)cc1
> 40 µM (inactive)	–	COc1ccc(Cl)cc1NC(=O)Cn1c(=O)n(CCCC(=O)NCc2ccc(C)cc2)c(=O)c2sccc21
> 40 µM (inactive)	–	N#Cc1cccc(NC(=O)Nc2cccn(Cc3ccc(F)cc3)c2=O)c1
> 40 µM (inactive)	–	COc1ccc(NC(=O)[C@H](C)NC(=O)c2cc3c(OC)cccc3[nH]2)cc1Cl
> 40 µM (inactive)	–	c1cncc(-c2cnc3sc(NC4CCCCC4)nn23)c1
> 40 µM (inactive)	–	O=C(Cn1c(=O)c2sccc2n(CC(=O)OCc2ccccc2)c1=O)NCc1ccccc1Cl
> 40 µM (inactive)	–	Cc1cccc(NC(=O)Cn2c(=O)n(-c3cc(C)cc(C)c3)c(=O)c3sccc32)c1
> 40 µM (inactive)	–	COCCCn1c(C(=O)NCc2ccccc2)cc2c(=O)n3ccccc3nc21
> 40 µM (inactive)	–	Cc1ccc(C(=O)NC(C)c2ccccc2)cc1NC(=O)c1nsc2ccccc12 (stereo not drawn)
> 40 µM (inactive)	–	CC(=O)c1ccc(NC(=O)CSc2nc(-c3ccccc3)nc3c2COC(C)(C)C3)cc1
> 40 µM (inactive)	–	Cc1ccc2cc(CNc3ccccc3)c(=O)n(CC(=O)Nc3ccccc3C)c2c1
> 40 µM (inactive)	–	O=C(CSc1ccc2nnc(-c3ccc(Cl)cc3)n2n1)N1CCCCC1
> 40 µM (inactive)	–	Cc1ccc(CS(=O)(=O)c2cn(CC(=O)NCCc3ccccc3)c3ccccc23)cc1
> 40 µM (inactive)	–	N#Cc1ccc(NC(=O)Nc2cccn(Cc3ccccc3Br)c2=O)cc1
> 40 µM (inactive)	–	O=C1CC(c2cc3c(cc2Br)OCO3)c2cc3c(cc2N1)OCCO3 (stereo not drawn)
> 40 µM (inactive)	–	O=C(Cn1c(=O)n(Cc2ccc(C(=O)NC3CCCC3)cc2)c(=O)c2ccccc21)c1ccc(Cl)c(Cl)c1

IC50	pIC50	Compound
> 40 µM (inactive)	–	CC(C)c1nnc(NC(=O)C2CC(=O)N(CCc3ccc(F)cc3)C2)s1 (stereo not drawn)
–	4.52	Cc1ccc(NC(=O)Cc2nnc3c(-c4nc(C5CC5)no4)cccn23)cc1F
–	4.59	Cc1ccc(NC(=O)Nc2ccc(C)n(CC(=O)Nc3ccc(C)cc3C)c2=O)cc1
> 40 µM (inactive)	–	O=C(COc1ccc(Cl)cc1Cl)Nc1ccc2[nH]c(=O)[nH]c2c1
> 40 µM (inactive)	–	Fc1ccccc1-c1nc2c3cnn(-c4ccccc4)c3ncn2n1
> 40 µM (inactive)	–	CC(C)NC(=O)Cn1ccn2nc(-c3ccc(Cl)cc3)cc2c1=O
> 40 µM (inactive)	–	COc1ccc(/C=C/C(=O)Nc2ccc(Cl)c(-c3nc4ncccc4o3)c2)cc1
> 40 µM (inactive)	–	COc1ccc(/C=C/C(=O)Nc2nc3n(n2)C(c2ccccc2)CC(=O)N3)cc1 (stereo not drawn)
> 40 µM (inactive)	–	CCCN1CCN(C(=O)Cn2c(C)ccc(NC(=O)c3ccccc3)c2=O)CC1
> 40 µM (inactive)	–	Cc1ccc(S(=O)(=O)N2CCC3(CC2)OC(=O)Nc2ccccc23)cc1
> 40 µM (inactive)	–	CC(=O)Nc1ccc(Cc2nc(-c3ccc4c(c3)nc(C)c(=O)n4C3CCCC3)no2)cc1
> 40 µM (inactive)	–	Cc1nc(-c2ccc(Cl)cc2)oc1C(=O)Nc1ccc(Cl)cc1
> 40 µM (inactive)	–	Cn1c(=O)[nH]c(=O)c2c1nc(N1CCc3ccccc3C1)n2CCSc1nnnn1-c1ccccc1
> 40 µM (inactive)	–	COc1ccc2[nH]c(=O)c(CN(C)C(=O)c3ccc([N+](=O)[O-])cc3)cc2c1
> 40 µM (inactive)	–	Cc1ccc2c(CNCCC3=CCCCC3)c(C(=O)O)n(C)c2c1
–	5.06	CCCCCCCC1OC(=O)Cc2cc(O)c(O)c(O)c21 (stereo not drawn)
> 40 µM (inactive)	–	COc1ccc(-c2onc(C)c2C)cc1S(=O)(=O)NCc1ccc(F)cc1
> 40 µM (inactive)	–	COc1cc(OC)c(NC(=O)c2cc(-c3ccccn3)n[nH]2)cc1Cl
> 40 µM (inactive)	–	Cc1ccc(NC(=O)c2cc(-c3ccncc3)n[nH]2)cc1Cl
> 40 µM (inactive)	–	Cc1nc2nc(C(c3ccccc3)c3ccccc3)[nH]n2c(=O)c1Cc1ccccc1

Compound	IC50	pIC50
CC(C)=CCOC(C)(C)[C@H]1OC2CC[C@@]3(C)C(CCC4Cc5c([nH]c6ccccc56)[C@@]43C)C23OC3[C@@H]1O (stereo partly drawn)	–	4.46
CC(C)=CCC[C@H](C(=O)O)[C@@H]1CC[C@]2(C)C3=C(CC[C@@]12C)[C@@]1(C)CCC(=O)C(C)(C)C1CC3 (stereo partly drawn)	> 40 µM (inactive)	–
